Laboratory results as given in patent publication US20210070748A1, “INHIBITORS OF BRUTONS TYROSINE KINASE” (Pharmacyclics LLC, priority 2015, published 2021).

Assays:
Format in all cases: biochemical
ITK = biological target: T1, ITK (Homo sapiens, UniProt Q08881); assay: Inhibition of a panel of kinases, in vitro HotSpot kinase assay: ITK; conditions: E compounds, Table 17
T1 sequence (Q08881 1-620): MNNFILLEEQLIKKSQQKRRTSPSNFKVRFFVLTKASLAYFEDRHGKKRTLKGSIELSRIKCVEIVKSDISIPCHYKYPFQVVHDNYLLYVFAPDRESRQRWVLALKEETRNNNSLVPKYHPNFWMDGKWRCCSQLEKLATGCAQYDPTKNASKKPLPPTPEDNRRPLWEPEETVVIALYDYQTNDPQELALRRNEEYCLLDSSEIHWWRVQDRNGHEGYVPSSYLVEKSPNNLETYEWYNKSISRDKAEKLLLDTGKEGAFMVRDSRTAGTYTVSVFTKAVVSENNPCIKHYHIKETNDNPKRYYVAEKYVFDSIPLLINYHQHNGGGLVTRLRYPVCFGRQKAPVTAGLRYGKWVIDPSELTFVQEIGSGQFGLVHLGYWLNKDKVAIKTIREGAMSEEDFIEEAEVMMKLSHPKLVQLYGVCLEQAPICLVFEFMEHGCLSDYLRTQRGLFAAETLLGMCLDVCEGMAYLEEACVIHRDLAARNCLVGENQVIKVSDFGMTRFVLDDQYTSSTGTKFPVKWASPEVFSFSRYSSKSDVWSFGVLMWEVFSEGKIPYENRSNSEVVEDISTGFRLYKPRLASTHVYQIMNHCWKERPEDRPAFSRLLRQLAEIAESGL
Protocol: (§1) The degree of inhibition of a panel of kinases is determined using the in vitro HotSpot kinase assay (purified enzymes, ^33P-ATP, an appropriate substrate and 1 μM ATP).

TEC = biological target: T2, TEC (Homo sapiens, UniProt P42680); assay: Inhibition of a panel of kinases, in vitro HotSpot kinase assay: TEC; conditions: E compounds, Table 17
T2 sequence (P42680 1-631): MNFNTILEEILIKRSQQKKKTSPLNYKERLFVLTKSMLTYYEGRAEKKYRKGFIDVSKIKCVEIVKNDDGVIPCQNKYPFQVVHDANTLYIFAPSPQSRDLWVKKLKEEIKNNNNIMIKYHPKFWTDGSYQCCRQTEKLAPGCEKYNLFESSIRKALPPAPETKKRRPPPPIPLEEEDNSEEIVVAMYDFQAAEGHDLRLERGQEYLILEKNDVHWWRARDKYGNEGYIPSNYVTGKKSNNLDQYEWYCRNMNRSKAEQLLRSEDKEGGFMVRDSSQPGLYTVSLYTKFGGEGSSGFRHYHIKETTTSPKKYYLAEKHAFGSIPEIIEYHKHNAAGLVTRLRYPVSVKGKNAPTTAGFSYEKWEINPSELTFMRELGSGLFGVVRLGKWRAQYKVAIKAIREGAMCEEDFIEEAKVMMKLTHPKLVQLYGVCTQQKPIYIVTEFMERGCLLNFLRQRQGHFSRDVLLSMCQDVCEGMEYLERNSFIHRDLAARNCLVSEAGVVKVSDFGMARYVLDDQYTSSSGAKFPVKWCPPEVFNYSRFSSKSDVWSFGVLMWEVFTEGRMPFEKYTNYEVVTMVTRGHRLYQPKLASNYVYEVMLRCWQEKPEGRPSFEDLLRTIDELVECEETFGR
Protocol: as §1

BTK-WT = biological target: T3, BTK-WT (Homo sapiens, UniProt Q06187); assay: Btk in vitro inhibitory activity (one of Method A TR-FRET, Method B electrophoretic mobility shift, Method C radiometric filter binding); conditions: E compounds, Table 17; read-out: IC50 BTK-WT
T3 construct: purified from insect cells as a full-length construct containing an N-terminal 6X-His tag; His6 (N); made in house; host or cells: insect cells (baculovirus Sf21 in Method B)
T3 sequence (Q06187 whole entry): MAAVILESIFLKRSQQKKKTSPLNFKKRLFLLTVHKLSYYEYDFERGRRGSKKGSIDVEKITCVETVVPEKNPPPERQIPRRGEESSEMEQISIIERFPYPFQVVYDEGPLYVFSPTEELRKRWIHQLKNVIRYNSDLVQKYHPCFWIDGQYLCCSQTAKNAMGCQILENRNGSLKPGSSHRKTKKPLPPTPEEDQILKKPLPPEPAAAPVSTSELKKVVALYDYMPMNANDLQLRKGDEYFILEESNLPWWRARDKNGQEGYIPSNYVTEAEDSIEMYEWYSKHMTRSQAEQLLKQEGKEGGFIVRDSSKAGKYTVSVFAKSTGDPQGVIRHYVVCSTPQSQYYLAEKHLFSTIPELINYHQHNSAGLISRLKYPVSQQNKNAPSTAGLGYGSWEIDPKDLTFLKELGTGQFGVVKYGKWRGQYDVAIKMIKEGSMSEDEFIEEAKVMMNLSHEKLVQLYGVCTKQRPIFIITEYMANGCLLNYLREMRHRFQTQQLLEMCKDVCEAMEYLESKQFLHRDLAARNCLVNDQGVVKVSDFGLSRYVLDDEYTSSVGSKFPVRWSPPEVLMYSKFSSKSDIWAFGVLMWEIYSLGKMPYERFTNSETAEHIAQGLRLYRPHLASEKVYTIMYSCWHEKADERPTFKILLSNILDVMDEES

Compound	IC50 (ITK) [nM]	IC50 (TEC) [nM]	IC50 (BTK-WT) [nM]
C=CC(=O)N1CCC[C@@H](Nc2nnc(C(N)=O)c(Nc3ccc(C4CCN(C5CCCC5)CC4)cc3)n2)C1 [Example E-48, (R)-3-(1-acryloylpiperidin-3-ylamino)-5-(4-(1-cyclopentylpiperidin-4-yl)phenylamino)-1,2,4-triazine-6-carboxamide]	≤ 10	≤ 10	≤ 10
C=CC(=O)N1CCC[C@@H](Nc2nnc(C(N)=O)c(Nc3ccc(C(C)(C)C#N)cc3)n2)C1 [Example E-49, (R)-3-(1-acryloylpiperidin-3-ylamino)-5-(4-(2-cyanopropan-2-yl)phenylamino)-1,2,4-triazine-6-carboxamide]	≤ 10	≤ 10	≤ 10
C=CC(=O)N1CCC[C@@H](Nc2nnc(C(N)=O)c(Nc3ccc(I)cc3)n2)C1 [Example E-50, (R)-3-(1-acryloylpiperidin-3-ylamino)-5-(4-iodophenylamino)-1,2,4-triazine-6-carboxamide]	10 to 100	≤ 10	≤ 10
C=CC(=O)N1CCC[C@@H](Nc2nnc(C(N)=O)c(Nc3ccc4ncsc4c3)n2)C1 [Example E-51, (R)-3-(1-acryloylpiperidin-3-ylamino)-5-(benzo[d]thiazol-6-ylamino)-1,2,4-triazine-6-carboxamide]	≤ 10	≤ 10	≤ 10
C=CC(=O)N1CCC[C@@H](Nc2nnc(C(N)=O)c(Nc3ccc(Cn4cncn4)cc3)n2)C1 [Example E-52, (R)-5-(4-((1H-1,2,4-triazol-1-yl)methyl)phenyl-amino)-3-(1-acryloylpiperidin-3-ylamino)-1,2,4-triazine-6-carboxamide]	≤ 10	≤ 10	≤ 10
C=CC(=O)N1CCC[C@@H](Nc2nnc(C(N)=O)c(Nc3cncc(F)c3)n2)C1 [Example E-53, (R)-3-(1-acryloylpiperidin-3-ylamino)-5-(5-fluoropyridin-3-ylamino)-1,2,4-triazine-6-carboxamide]	100 to 1000	≤ 10	≤ 10
C=CC(=O)N1CCC[C@@H](Nc2nnc(C(N)=O)c(Nc3cnc4ccccc4c3)n2)C1 [Example E-54, (R)-3-(1-acryloylpiperidin-3-ylamino)-5-(quinolin-3-ylamino)-1,2,4-triazine-6-carboxamide]	10 to 100	≤ 10	≤ 10
C=CC(=O)N1CCC[C@@H](Nc2nnc(C(N)=O)c(Nc3ccc(CN(C(=O)OCc4ccccc4)[C@@H](C)C(C)(C)C)cc3)n2)C1 [Example E-56, benzyl 4-(3-((R)-1-acryloylpiperidin-3-ylamino)-6-carbamoyl-1,2,4-triazin-5-ylamino)benzyl((S)-3,3-dimethylbutan-2-yl)carbamate]	10 to 100	≤ 10	≤ 10
C=CC(=O)N1CCC[C@@H](Nc2nnc(C(N)=O)c(Nc3cccc(-c4ncco4)c3)n2)C1 [Example E-65, (R)-3-(1-acryloylpiperidin-3-ylamino)-5-(3-(oxazol-2-yl)phenylamino)-1,2,4-triazine-6-carboxamide]	10 to 100	≤ 10	≤ 10
C=CC(=O)N1CCC[C@@H](Nc2nnc(C(N)=O)c(Nc3ccc4c(cnn4CC)c3)n2)C1 [Example E-66, (R)-3-(1-acryloylpiperidin-3-ylamino)-5-(1-ethyl-1H-indazol-5-ylamino)-1,2,4-triazine-6-carboxamide]	≤ 10	≤ 10	≤ 10
C=CC(=O)N1CCC[C@@H](Nc2nnc(C(N)=O)c(Nc3ccc(-n4cncn4)cc3)n2)C1 [Example E-69, (R)-5-(4-(1H-1,2,4-triazol-1-yl)phenylamino)-3-(1-acryloylpiperidin-3-ylamino)-1,2,4-triazine-6-carboxamide]	10 to 100	≤ 10	≤ 10
C=CC(=O)N1CCC[C@@H](Nc2nnc(C(N)=O)c(Nc3cnn(C)c3)n2)C1 [Example E-73, (R)-3-(1-acryloylpiperidin-3-ylamino)-5-(1-methyl-1H-pyrazol-4-ylamino)-1,2,4-triazine-6-carboxamide]	≤ 10	≤ 10	≤ 10
C=CC(=O)N1CCC[C@@H](Nc2nnc(C(N)=O)c(Nc3ccc(Cl)cc3)n2)C1 [Example E-74, (R)-3-(1-acryloylpiperidin-3-ylamino)-5-(4-chlorophenylamino)-1,2,4-triazine-6-carboxamide]	10 to 100	≤ 10	≤ 10
C=CC(=O)N1CCC[C@@H](Nc2nnc(C(N)=O)c(Nc3cccc(Cl)c3)n2)C1 [Example E-75, (R)-3-(1-acryloylpiperidin-3-ylamino)-5-(3-chlorophenylamino)-1,2,4-triazine-6-carboxamide]	10 to 100	≤ 10	≤ 10
C=CC(=O)N1CCC[C@@H](Nc2nnc(C(N)=O)c(Nc3cc(F)cc(Cl)c3)n2)C1 [Example E-76, (R)-3-(1-acryloylpiperidin-3-ylamino)-5-(3-chloro-5-fluorophenylamino)-1,2,4-triazine-6-carboxamide]	10 to 100	≤ 10	≤ 10
C=CC(=O)N1CCC[C@@H](Nc2nnc(C(N)=O)c(Nc3cccc(C#N)c3)n2)C1 [Example E-77, (R)-3-(1-acryloylpiperidin-3-ylamino)-5-(3-cyanophenylamino)-1,2,4-triazine-6-carboxamide]	10 to 100	≤ 10	≤ 10
C=CC(=O)N1CCC[C@@H](Nc2nnc(C(N)=O)c(Nc3ccc(S(F)(F)(F)(F)F)cc3)n2)C1 [Example E-78, (R)-3-(1-acryloylpiperidin-3-ylamino)-5-(4-(penta-fluorothio)phenyl-amino)-1,2,4-triazine-6-carboxamide]	10 to 100	≤ 10	≤ 10
C=CC(=O)N1CCC[C@@H](Nc2nnc(C(N)=O)c(Nc3ccc(C#N)cc3)n2)C1 [Example E-79, (R)-3-(1-acryloylpiperidin-3-ylamino)-5-(4-cyanophenylamino)-1,2,4-triazine-6-carboxamide]	10 to 100	≤ 10	≤ 10
C=CC(=O)N1CCC[C@@H](Nc2nnc(C(N)=O)c(Nc3ccc(C4=NCCN4C)cc3)n2)C1 [Example E-80, (R)-3-(1-acryloylpiperidin-3-ylamino)-5-(4-(1-methyl-4,5-dihydro-1H-imidazol-2-yl)phenylamino)-1,2,4-triazine-6-carboxamide]	≤ 10	≤ 10	≤ 10
C=CC(=O)N1CCC[C@@H](Nc2nnc(C(N)=O)c(Nc3cccc(C(=O)OCC)c3)n2)C1 [Example E-81, (R)-ethyl 3-(3-(1-acryloylpiperidin-3-ylamino)-6-carbamoyl-1,2,4-triazin-5-ylamino)benzoate]	100 to 1000	≤ 10	≤ 10
C=CC(=O)N1CCC[C@@H](Nc2nnc(C(N)=O)c(Nc3cccc(C(=O)NC)c3)n2)C1 [Example E-82, (R)-3-(1-acryloylpiperidin-3-ylamino)-5-(3-(methylcarbamoyl)phenylamino)-1,2,4-triazine-6-carboxamide]	10 to 100	≤ 10	≤ 10
C=CC(=O)N1CCC[C@@H](Nc2nnc(C(N)=O)c(Nc3cccc(C(=O)N(C)C)c3)n2)C1 [Example E-83, (R)-3-(1-acryloylpiperidin-3-ylamino)-5-(3-(dimethylcarbamoyl)phenylamino)-1,2,4-triazine-6-carboxamide]	10 to 100	≤ 10	≤ 10
C=CC(=O)N1CCC[C@@H](Nc2nnc(C(N)=O)c(Nc3cccc(C(=O)NC4CC4)c3)n2)C1 [Example E-84, (R)-3-(1-acryloylpiperidin-3-ylamino)-5-(3-(cyclopropyl-carbamoyl)phenyl-amino)-1,2,4-triazine-6-carboxamide]	10 to 100	≤ 10	≤ 10
